Results taken from ChEMBL document CHEMBL1806450, “Synthesis of an aryloxy oxo pyrimidinone library that displays ALK-selective inhibition” (Bioorg Med Chem Lett, 2011).

How the values were obtained:
Insulin receptor = Insulin receptor (Homo sapiens, UniProt P06213)
Description: Inhibition of recombinant IRK using biotinylated-poly(GT) peptide as substrate after 60 mins

[1] = biological target: Hepatocyte growth factor receptor (Homo sapiens, UniProt P08581)
Description: Inhibition of recombinant MET using biotinylated-poly(GT) peptide as substrate after 60 mins

[2] = biological target: ALK tyrosine kinase receptor (Homo sapiens, UniProt Q9UM73)
ALK tyrosine kinase receptor, sequence (Q9UM73 whole entry): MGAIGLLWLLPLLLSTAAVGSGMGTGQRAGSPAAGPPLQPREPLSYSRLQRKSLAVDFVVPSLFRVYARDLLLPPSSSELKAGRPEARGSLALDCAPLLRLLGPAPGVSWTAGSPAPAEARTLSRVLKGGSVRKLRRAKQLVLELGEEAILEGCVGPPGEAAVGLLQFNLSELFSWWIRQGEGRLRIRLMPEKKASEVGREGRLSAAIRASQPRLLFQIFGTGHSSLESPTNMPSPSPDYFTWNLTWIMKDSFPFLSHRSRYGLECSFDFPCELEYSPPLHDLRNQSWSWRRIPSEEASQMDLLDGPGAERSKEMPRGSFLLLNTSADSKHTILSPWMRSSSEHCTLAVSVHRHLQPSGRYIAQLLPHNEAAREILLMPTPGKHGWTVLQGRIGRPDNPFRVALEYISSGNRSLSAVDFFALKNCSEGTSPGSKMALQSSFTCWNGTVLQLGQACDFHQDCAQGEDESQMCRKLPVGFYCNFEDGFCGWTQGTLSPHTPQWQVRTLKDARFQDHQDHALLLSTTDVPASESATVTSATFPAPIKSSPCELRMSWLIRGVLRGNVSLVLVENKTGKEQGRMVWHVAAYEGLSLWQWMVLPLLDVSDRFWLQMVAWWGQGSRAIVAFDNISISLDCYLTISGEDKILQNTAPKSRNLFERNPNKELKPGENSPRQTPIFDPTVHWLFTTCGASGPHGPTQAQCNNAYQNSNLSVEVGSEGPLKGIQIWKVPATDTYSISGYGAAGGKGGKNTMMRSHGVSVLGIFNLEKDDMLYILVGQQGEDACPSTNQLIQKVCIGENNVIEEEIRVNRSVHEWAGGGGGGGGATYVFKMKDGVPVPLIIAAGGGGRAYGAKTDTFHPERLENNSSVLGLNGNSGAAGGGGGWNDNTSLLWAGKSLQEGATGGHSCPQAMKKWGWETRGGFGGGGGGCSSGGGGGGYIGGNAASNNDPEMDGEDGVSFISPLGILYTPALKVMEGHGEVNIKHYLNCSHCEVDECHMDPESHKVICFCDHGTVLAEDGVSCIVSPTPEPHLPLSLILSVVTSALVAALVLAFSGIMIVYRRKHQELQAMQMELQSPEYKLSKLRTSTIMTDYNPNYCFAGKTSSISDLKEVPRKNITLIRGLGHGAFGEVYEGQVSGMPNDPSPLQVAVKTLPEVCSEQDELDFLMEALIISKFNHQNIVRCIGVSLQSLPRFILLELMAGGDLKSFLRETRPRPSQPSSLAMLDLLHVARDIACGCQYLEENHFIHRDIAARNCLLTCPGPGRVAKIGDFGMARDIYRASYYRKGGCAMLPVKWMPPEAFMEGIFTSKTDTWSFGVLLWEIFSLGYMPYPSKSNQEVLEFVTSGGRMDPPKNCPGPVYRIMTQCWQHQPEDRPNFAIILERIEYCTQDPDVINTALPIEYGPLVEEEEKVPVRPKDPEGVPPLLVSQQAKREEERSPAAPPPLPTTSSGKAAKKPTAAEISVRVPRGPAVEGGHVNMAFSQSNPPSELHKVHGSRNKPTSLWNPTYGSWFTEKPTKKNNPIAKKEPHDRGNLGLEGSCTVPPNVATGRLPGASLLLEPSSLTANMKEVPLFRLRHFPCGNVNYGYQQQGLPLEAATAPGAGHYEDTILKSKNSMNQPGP
Description: Inhibition of 6xHis-tagged NPM-ALK using biotinylated-poly(GT) peptide as substrate after 60 mins

Hepatocyte growth factor receptor, sequence (P08581 whole entry): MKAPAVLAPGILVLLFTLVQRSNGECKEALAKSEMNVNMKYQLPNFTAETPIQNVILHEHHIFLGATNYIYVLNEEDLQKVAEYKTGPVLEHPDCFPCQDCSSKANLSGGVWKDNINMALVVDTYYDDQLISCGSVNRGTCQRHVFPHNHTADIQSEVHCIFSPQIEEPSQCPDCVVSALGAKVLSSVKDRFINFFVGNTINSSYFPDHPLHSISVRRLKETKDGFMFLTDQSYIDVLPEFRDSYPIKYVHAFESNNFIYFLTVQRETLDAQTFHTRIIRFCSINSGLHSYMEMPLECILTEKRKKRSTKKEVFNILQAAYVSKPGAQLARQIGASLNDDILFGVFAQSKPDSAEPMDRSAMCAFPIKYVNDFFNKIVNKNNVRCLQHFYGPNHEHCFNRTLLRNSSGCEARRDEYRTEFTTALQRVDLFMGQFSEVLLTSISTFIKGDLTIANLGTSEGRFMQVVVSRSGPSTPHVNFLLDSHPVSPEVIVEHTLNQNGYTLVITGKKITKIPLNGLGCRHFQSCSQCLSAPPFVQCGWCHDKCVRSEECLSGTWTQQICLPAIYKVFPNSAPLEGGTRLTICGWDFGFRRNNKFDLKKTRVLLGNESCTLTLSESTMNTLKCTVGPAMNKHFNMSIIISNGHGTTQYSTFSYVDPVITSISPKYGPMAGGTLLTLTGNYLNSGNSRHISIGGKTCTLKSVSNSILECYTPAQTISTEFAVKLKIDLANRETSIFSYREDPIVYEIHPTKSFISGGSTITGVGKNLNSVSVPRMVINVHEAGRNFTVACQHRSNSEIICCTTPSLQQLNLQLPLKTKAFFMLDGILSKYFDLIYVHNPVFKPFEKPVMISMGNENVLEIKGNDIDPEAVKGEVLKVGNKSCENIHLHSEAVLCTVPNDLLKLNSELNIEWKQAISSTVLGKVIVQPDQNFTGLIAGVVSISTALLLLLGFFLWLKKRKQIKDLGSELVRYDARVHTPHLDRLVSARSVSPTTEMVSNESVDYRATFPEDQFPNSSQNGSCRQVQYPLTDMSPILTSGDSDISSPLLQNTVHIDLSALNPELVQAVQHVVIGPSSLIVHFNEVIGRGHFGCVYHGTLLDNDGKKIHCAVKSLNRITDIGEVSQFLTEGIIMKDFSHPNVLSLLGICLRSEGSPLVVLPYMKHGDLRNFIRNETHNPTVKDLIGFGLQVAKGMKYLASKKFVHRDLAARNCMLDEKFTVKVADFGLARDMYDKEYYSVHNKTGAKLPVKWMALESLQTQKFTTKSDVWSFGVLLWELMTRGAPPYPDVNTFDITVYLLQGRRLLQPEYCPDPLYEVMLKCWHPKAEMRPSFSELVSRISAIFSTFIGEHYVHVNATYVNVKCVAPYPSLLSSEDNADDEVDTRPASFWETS
Insulin receptor, sequence (P06213 28-758 limits assumed): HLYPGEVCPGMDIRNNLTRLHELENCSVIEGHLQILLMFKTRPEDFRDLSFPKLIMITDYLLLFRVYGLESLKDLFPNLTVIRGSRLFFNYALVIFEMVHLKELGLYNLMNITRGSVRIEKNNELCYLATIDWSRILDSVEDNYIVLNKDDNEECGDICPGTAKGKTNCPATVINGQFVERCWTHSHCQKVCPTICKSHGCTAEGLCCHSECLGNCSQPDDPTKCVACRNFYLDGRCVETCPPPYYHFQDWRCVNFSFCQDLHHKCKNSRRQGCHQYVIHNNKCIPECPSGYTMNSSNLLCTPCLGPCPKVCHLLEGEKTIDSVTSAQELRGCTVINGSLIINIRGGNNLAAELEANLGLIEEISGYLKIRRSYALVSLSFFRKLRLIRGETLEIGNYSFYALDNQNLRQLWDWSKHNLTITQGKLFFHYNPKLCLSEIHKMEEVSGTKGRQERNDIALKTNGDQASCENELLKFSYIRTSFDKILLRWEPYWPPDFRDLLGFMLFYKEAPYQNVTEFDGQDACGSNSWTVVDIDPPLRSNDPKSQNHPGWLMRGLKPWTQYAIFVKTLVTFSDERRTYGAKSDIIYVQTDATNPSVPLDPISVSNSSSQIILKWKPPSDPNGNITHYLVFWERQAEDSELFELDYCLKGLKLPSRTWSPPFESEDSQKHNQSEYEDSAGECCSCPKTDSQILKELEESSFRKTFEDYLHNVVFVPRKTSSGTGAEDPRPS
Insulin receptor, sequence (P06213 763-1382 limits assumed): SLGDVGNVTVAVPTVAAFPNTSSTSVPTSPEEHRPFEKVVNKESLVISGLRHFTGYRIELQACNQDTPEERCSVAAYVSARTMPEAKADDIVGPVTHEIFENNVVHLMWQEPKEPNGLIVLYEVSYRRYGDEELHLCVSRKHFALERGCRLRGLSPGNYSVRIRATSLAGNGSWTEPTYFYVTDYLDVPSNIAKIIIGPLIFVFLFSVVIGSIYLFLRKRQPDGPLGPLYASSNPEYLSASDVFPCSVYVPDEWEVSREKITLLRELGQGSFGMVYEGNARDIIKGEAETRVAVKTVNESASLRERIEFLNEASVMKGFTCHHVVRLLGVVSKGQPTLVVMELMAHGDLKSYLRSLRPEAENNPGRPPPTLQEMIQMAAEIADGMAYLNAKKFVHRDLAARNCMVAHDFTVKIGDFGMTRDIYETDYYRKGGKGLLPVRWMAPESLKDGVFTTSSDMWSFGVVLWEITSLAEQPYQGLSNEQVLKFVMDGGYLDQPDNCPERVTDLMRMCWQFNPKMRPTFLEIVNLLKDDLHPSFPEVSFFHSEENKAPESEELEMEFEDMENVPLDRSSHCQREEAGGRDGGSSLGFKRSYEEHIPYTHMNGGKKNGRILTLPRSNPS

| SMILES | IC50 (Insulin receptor) [µM] | IC50 [1] [µM] | IC50 [2] [µM] |
| --- | --- | --- | --- |
| COC(=O)c1cccc(Oc2nc[nH]c(=O)c2C2CC(C)=NN2C(C)=O)c1 (stereo not drawn) | > 40 | > 40 | 9 |
| COC(=O)c1cccc(Oc2nc[nH]c(=O)c2/C=C/C(C)=O)c1 | > 40 | 4.01 | 3.03 |
| CC(=O)/C=C/c1c(Oc2ccc(C)cc2)nc[nH]c1=O | > 40 | > 40 | > 40 |
| CC(=O)/C=C/c1c(Oc2ccc(C(C)(C)C)cc2)nc[nH]c1=O | > 40 | > 40 | > 40 |
| CC(=O)/C=C/c1c(Oc2ccccc2Cl)nc[nH]c1=O | > 40 | > 40 | > 40 |
| CCOC(=O)/C=C/c1c(Oc2ccc(F)cc2)nc[nH]c1=O | > 40 | > 40 | > 40 |
| COC(=O)c1cc(OC)ccc1Oc1nc[nH]c(=O)c1/C=C/C(C)=O | > 40 | > 40 | > 40 |
| CCOC(=O)/C=C/c1c(Oc2ccc(OC)cc2C(=O)OC)nc[nH]c1=O | > 40 | > 40 | > 40 |
| CCOC(=O)/C=C/c1c(Oc2c(OC)cccc2OC)nc[nH]c1=O | > 40 | > 40 | > 40 |
| CC(=O)/C=C/c1c(Oc2cccc(C#N)c2)nc[nH]c1=O | > 40 | > 40 | > 40 |
| CCOC(=O)/C=C/c1c(Oc2cccc(C#N)c2)nc[nH]c1=O | > 40 | > 40 | > 40 |
| COc1cccc(Oc2nc[nH]c(=O)c2/C=C/C(C)=O)c1 | > 40 | > 40 | > 40 |
| CCOC(=O)/C=C/c1c(Oc2cccc(OC)c2)nc[nH]c1=O | > 40 | > 40 | > 40 |
| CC(=O)/C=C/c1c(Oc2ccc(NC(C)=O)cc2)nc[nH]c1=O | > 40 | > 40 | 6.64 |
| CC(=O)/C=C/c1c(Oc2ccc(O)cc2)nc[nH]c1=O | > 40 | > 40 | 7.57 |
| CC(=O)/C=C/c1c(Oc2ccc(C#N)cc2)nc[nH]c1=O | > 40 | > 40 | 6.91 |
| COc1cc(Oc2nc[nH]c(=O)c2/C=C/C(C)=O)c(C(C)=O)cc1OC | > 40 | > 40 | 7.54 |
| CC(=O)/C=C/c1c(Oc2c(C)cc(C(C)=O)cc2C)nc[nH]c1=O | > 40 | > 40 | > 40 |
| COC(=O)c1cc(Cl)ccc1Oc1nc[nH]c(=O)c1/C=C/C(C)=O | > 40 | > 40 | > 40 |
| CCCCCCOC(=O)c1ccccc1Oc1nc[nH]c(=O)c1/C=C/C(C)=O | > 40 | > 40 | > 40 |
| CCOC(=O)c1ccc(Oc2nc[nH]c(=O)c2/C=C/C(C)=O)cc1 | > 40 | > 40 | > 40 |
| CC(=O)/C=C/c1c(Oc2cc(C(F)(F)F)ccc2Cl)nc[nH]c1=O | > 40 | > 40 | 9.87 |
| COC(=O)c1cccc(Oc2nc[nH]c(=O)c2CCC(C)=O)c1 | > 40 | > 40 | > 40 |
| COC(=O)c1cccc(Oc2nc[nH]c(=O)c2C2CC(C)=NN2C)c1 (stereo not drawn) | > 40 | > 40 | > 40 |
| COC(=O)c1cccc(Oc2nc[nH]c(=O)c2-c2ccccc2)c1 | > 40 | > 40 | > 40 |
| COC(=O)c1cccc(Oc2nc[nH]c(=O)c2-c2cccc(C)c2)c1 | > 40 | > 40 | > 40 |

Further lines, results first:

| IC50 (Insulin receptor) [µM] | IC50 [1] [µM] | IC50 [2] [µM] | SMILES |
| --- | --- | --- | --- |
| > 40 | > 40 | > 40 | CCOC(=O)/C=C/c1c(Oc2cccc(C(=O)OC)c2)nc[nH]c1=O |
| > 40 | > 40 | > 40 | CCOC(=O)/C=C/c1c(Oc2ccc(C)cc2)nc[nH]c1=O |
| > 40 | > 40 | > 40 | CCOC(=O)/C=C/c1c(Oc2ccc(C(C)(C)C)cc2)nc[nH]c1=O |
| > 40 | > 40 | > 40 | CCOC(=O)/C=C/c1c(Oc2ccccc2Cl)nc[nH]c1=O |
| > 40 | > 40 | > 40 | CC(=O)/C=C/c1c(Oc2ccc(F)cc2)nc[nH]c1=O |
| > 40 | > 40 | > 40 | COc1cccc(OC)c1Oc1nc[nH]c(=O)c1/C=C/C(C)=O |
| > 40 | > 40 | > 40 | COc1cc(Cl)ccc1Oc1nc[nH]c(=O)c1/C=C/C(C)=O |
| > 40 | > 40 | > 40 | CCOC(=O)/C=C/c1c(Oc2ccc(Cl)cc2OC)nc[nH]c1=O |
| > 40 | > 40 | > 40 | CC(=O)/C=C/c1c(Oc2c(Cl)cccc2Cl)nc[nH]c1=O |
| > 40 | > 40 | > 40 | CCOC(=O)/C=C/c1c(Oc2c(Cl)cccc2Cl)nc[nH]c1=O |
| > 40 | > 40 | 6.25 | CC(=O)/C=C/c1c(Oc2cccc(C(C)=O)c2)nc[nH]c1=O |
| > 40 | > 40 | > 40 | CC(=O)/C=C/c1c(Oc2ccccc2C(C)=O)nc[nH]c1=O |
| > 40 | > 40 | > 40 | CC(=O)/C=C/c1c(Oc2ccc(C(C)=O)c(F)c2)nc[nH]c1=O |
| > 40 | > 40 | 10.2 | COC(=O)c1ccc(OC)cc1Oc1nc[nH]c(=O)c1/C=C/C(C)=O |
| > 40 | > 40 | > 40 | CC(=O)/C=C/c1c(Oc2ccc(C)cc2C(C)=O)nc[nH]c1=O |
| > 40 | > 40 | 7.54 | CCOC(=O)c1ccccc1Oc1nc[nH]c(=O)c1/C=C/C(C)=O |
| > 40 | > 40 | > 40 | COC(=O)c1cccc(Oc2nc[nH]c(=O)c2C2CC(C)=NN2)c1 (stereo not drawn) |
| > 40 | > 40 | > 40 | COC(=O)c1cccc(Oc2nc[nH]c(=O)c2-c2ccncc2)c1 |
| > 40 | > 40 | > 40 | COC(=O)c1cccc(Oc2nc[nH]c(=O)c2-c2cccc(N)c2)c1 |
| > 40 | > 40 | > 40 | COC(=O)c1cccc(Oc2nc[nH]c(=O)c2-c2cccc(OC)c2)c1 |
